Assay results as given in PubChem BioAssay (NCI).
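GI50 marks 50% less growth. Definition used: TGI = concentration required for complete inhibition of growth.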

Tests used:
Assay in all cases: NCI tumour cell line growth inhibition, 384-well format
[1] = test system: MDA-MB-231 breast
[2] = test system: RXF 393 renal
[3] = test system: NCI-H522 lung
[4] = test system: M14 melanoma
[5] = test system: HL-60(TB) leukemia
[6] = test system: NCI/ADR-RES ovarian
[7] = test system: ACHN renal
[8] = test system: OVCAR-4 ovarian
[9] = test system: SK-MEL-2 melanoma
[10] = test system: NCI-H226 lung
[11] = test system: SR leukemia
[12] = test system: MDA-MB-435 melanoma
[13] = test system: A498 renal
[14] = test system: MALME-3M melanoma
[15] = test system: EKVX NSCLC
[16] = test system: NCI-H322M lung
[17] = test system: MCF7 breast
[18] = test system: HOP-62 NSCLC
[19] = test system: RPMI-8226 leukemia
[20] = test system: SW-620 colon
[21] = test system: T-47D breast
[22] = test system: SF-268 CNS
[23] = test system: OVCAR-8 ovarian
[24] = test system: CCRF-CEM leukemia
[25] = test system: A549 NSCLC
[26] = test system: OVCAR-5 ovarian
[27] = test system: SF-539 CNS

SMILES: N#C[C@@H]1C(n2ccc(N)nc2=O)O[C@H](CO)[C@H]1O (some centres undefined)
- GI50 [1]: 17.1 µM
- TGI [1]: > 100 µM
- GI50 [2]: 24.4 µM
- TGI [2]: 70.3 µM
- GI50 [3]: 2.03 µM
- TGI [3]: 79.6 µM
- GI50 [4]: 0.543 µM
- TGI [4]: 4.47 µM
- GI50 [5]: 0.315 µM
- TGI [5]: 0.728 µM
- GI50 [6]: 6.95 µM
- TGI [6]: 32.1 µM
- GI50 [7]: 14.5 µM
- TGI [7]: 35.6 µM
- GI50 [8]: > 100 µM
- TGI [8]: > 100 µM
- GI50 [9]: 2.75 µM
- TGI [9]: 7.76 µM
- GI50 [10]: 3.7 µM
- TGI [10]: 32.4 µM
- GI50 [11]: 1.92 µM
- TGI [11]: 3.54 µM
- GI50 [12]: 85 µM
- TGI [12]: > 100 µM
- GI50 [13]: 0.688 µM
- TGI [13]: 14.4 µM
- GI50 [14]: 1.21 µM
- TGI [14]: 7.34 µM
- GI50 [15]: > 100 µM
- TGI [15]: > 100 µM
- GI50 [16]: 45.8 µM
- TGI [16]: > 100 µM
- GI50 [17]: 1.58 µM
- TGI [17]: > 100 µM
- GI50 [18]: 0.34 µM
- TGI [18]: 16.7 µM
- GI50 [19]: 6.73 µM
- TGI [19]: 55.9 µM
- GI50 [20]: 34.9 µM
- TGI [20]: > 100 µM
- GI50 [21]: > 100 µM
- TGI [21]: > 100 µM
- GI50 [22]: 0.632 µM
- TGI [22]: 27.7 µM
- GI50 [23]: 0.962 µM
- TGI [23]: 20.9 µM
- GI50 [24]: 0.0275 µM
- TGI [24]: 0.125 µM
- GI50 [25]: 1.25 µM
- TGI [25]: 71 µM
- GI50 [26]: 37.1 µM
- TGI [26]: > 100 µM
- GI50 [27]: 4.18 µM
- TGI [27]: > 100 µM
